Results: PubChem BioAssay (NCI)
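Interpolation was linear, between the two tested concentrations surrounding the appropriate level; five concentrations were tested over 48 hours in 96-well plates. TGI marks complete inhibition of growth.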 Where a SMILES comes first, the peptide text is derived from it. [ ]: non-standard residue; d: D form. The star is where a group is joined. ξ: configuration not given here. ξD = NC(CC(=O)O)C(=O)O; Boc = CC(C)(C)OC(=O)*; Aib = CC(C)(N)C(=O)O; OBn = c1ccc(CO*)cc1

How the values were obtained:
Assay in all cases: NCI-60 cell line screen, 48 h
MDA-MB-231 breast = system: MDA-MB-231 breast
UACC-257 melanoma = system: UACC-257 melanoma
SN12C renal = system: SN12C renal
CAKI-1 renal = system: CAKI-1 renal
SF-539 CNS = system: SF-539 CNS
UACC-62 melanoma = system: UACC-62 melanoma
MDA-N = system: MDA-N
SK-MEL-5 melanoma = system: SK-MEL-5 melanoma
HOP-62 NSCLC = system: HOP-62 NSCLC
IGROV1 ovarian = system: IGROV1 ovarian
HCC-2998 colon = system: HCC-2998 colon
UO-31 renal = system: UO-31 renal
SK-MEL-28 melanoma = system: SK-MEL-28 melanoma
SF-268 CNS = system: SF-268 CNS
PC-3 prostate = system: PC-3 prostate
A549 NSCLC = system: A549 NSCLC
CCRF-CEM leukemia = system: CCRF-CEM leukemia

Row | SMILES | TGI (MDA-MB-231 breast) [µM] | TGI (UACC-257 melanoma) [µM] | TGI (SN12C renal) [µM] | TGI (CAKI-1 renal) [µM] | TGI (SF-539 CNS) [µM] | TGI (UACC-62 melanoma) [µM] | TGI (MDA-N) [µM] | TGI (SK-MEL-5 melanoma) [µM] | TGI (HOP-62 NSCLC) [µM] | TGI (IGROV1 ovarian) [µM] | TGI (HCC-2998 colon) [µM] | TGI (UO-31 renal) [µM] | TGI (SK-MEL-28 melanoma) [µM] | TGI (SF-268 CNS) [µM] | TGI (PC-3 prostate) [µM] | TGI (A549 NSCLC) [µM] | TGI (CCRF-CEM leukemia) [µM]
1 | CCC1C(NC(=O)OC)C(=O)N1[C@@H](C)c1ccccc1 (stereo partly drawn) | > 100 | > 100 | > 100 | > 100 | > 100 | > 100 | > 100 | > 100 | > 100 | > 100 | > 100 | > 100 | > 100 | > 100 | > 100 |  | 
2 | Fc1cc2nc3n(c2cc1F)C(c1c(F)cccc1F)SC3 (stereo not drawn) | > 100 | > 100 | > 100 | > 100 | > 100 | > 100 | > 100 | 34.6 | > 100 | > 100 | > 100 | > 100 | > 100 | > 100 | > 100 | > 100 | 
3 | S=C(NCCc1ccccn1)N/N=C(\c1ccccc1)c1ccccn1 | > 100 | > 70.5 | > 67.3 | > 58.8 | 27.1 | > 24.4 | > 100 | 40.2 | > 50.1 |  | > 63 | 14.1 | > 100 | > 76.1 | > 100 | > 100 | > 100
4 | CCS1=C2C(=O)CC(C)(C)CC2=Nc2ccccc21 (stereo not drawn) | > 100 | > 100 | > 100 | > 100 |  | > 100 | > 100 | > 100 | > 100 | > 100 | > 100 | > 100 | > 100 | > 100 | > 100 | > 100 | > 100
5 | Cn1cc(NC(=O)Nc2cc(C(=O)Nc3cc(C(=O)Nc4ccc5cc(S(=O)(=O)O)cc(S(=O)(=O)O)c5c4)n(C)c3)n(C)c2)cc1C(=O)Nc1cc(C(=O)Nc2ccc3cc(S(=O)(=O)O)cc(S(=O)(=O)O)c3c2)n(C)c1 | > 100 | > 100 | > 100 |  | > 100 | > 100 | > 100 | > 100 | > 100 | > 100 | > 100 | > 100 | > 100 | > 100 | > 100 | > 100 | > 100
6 | O=C(C[C@@H]1CCCN2CCCC[C@H]12)N1c2ccccc2Sc2ccc(Cl)cc21 | 28.4 | 25.6 | 32.1 | 27.6 | 32.1 |  | 30.9 | 23.9 | 26 | 25.6 |  | 25.9 | 26.3 | 42.8 | 27.2 | 30.9 | 35.1
7 | COc1cc(/C=C2\CCC(C)C3=C2N=c2s/c(=C/c4ccc(Cl)cc4)c(=O)n2C3c2cc(OC)c(OC)c(OC)c2)cc(OC)c1OC (stereo not drawn) | > 100 | > 100 | > 100 | > 100 |  | > 100 | > 100 | > 100 | > 100 | > 100 |  | > 100 | > 100 | > 100 | > 100 | > 100 | > 100
8 | C/C(=C/CC[C@](C)(OC1OC(CO)C(O)C(O)C1O)[C@H]1CC[C@]2(C)[C@@H]1CC[C@@H]1[C@@]3(C)CC[C@H](O)C(C)(C)[C@@H]3C[C@H](O)[C@]12CO)CO (stereo partly drawn) | > 100 | > 100 | > 100 | > 100 | > 100 | > 100 | > 100 | > 100 | > 100 | > 100 |  | > 100 | > 100 | > 100 | > 100 | > 100 | > 100
9 | COc1cc(/C=N/NC(=O)c2c(Cl)c(Cl)c(Cl)c(Cl)c2-c2nc3ccc(C(=O)c4ccccc4)cc3[nH]2)ccc1O | > 100 | > 100 | > 100 | > 100 | > 100 |  | 52 | > 100 | > 100 | > 100 |  | > 100 | > 100 | > 100 | > 100 | > 100 | 81.6
10 | CCOC(=O)c1cc(=O)c2cccc3c2n1CCS3 | > 100 | > 100 | > 100 | > 100 | > 100 | > 100 | > 100 | > 100 | > 100 | > 100 |  | > 100 | > 100 | > 100 | > 100 | > 100 | > 100
11 | C/C(=N\O)c1ccc(OCc2cc(C(F)(F)F)cc(C(F)(F)F)c2)cc1 | > 100 | > 100 | > 100 | > 100 | > 100 |  | > 100 | > 100 | > 100 | > 100 | 98.4 | > 100 | > 100 | > 100 | > 100 | > 100 | 89.3
12 | N#CC(O)CCOCc1ccccc1 (stereo not drawn) | > 100 | > 100 | > 100 | 35.6 | > 100 | > 100 | > 100 | > 100 | > 100 | > 100 |  | > 100 | > 100 | > 100 | > 100 | > 100 | > 100
13 | CCOC(=O)C(=[N+]=[N-])C(=O)CSC#N | > 100 | > 100 | > 100 | > 100 | 47.1 | > 100 | > 100 | > 100 | > 100 | > 100 |  | > 100 | > 100 | > 100 | > 100 | > 100 | > 100
14 | Cc1cccc(N=Nc2c(C)nn(C(=O)CC(=O)Nc3ccc(Cl)cc3)c2C)c1 | > 100 | > 100 | > 100 | > 100 | > 100 | > 100 | > 100 | > 100 | > 100 |  | > 100 | > 100 | > 100 | > 100 | > 100 | > 100 | 98.6
15 | Cc1csc2nc(-c3cccc([N+](=O)[O-])c3)c(/C=N/N=C(N)N)n12 | 2.95 | 3.22 | 3.11 | 8.71 | 4.71 | 2.8 | 3.04 | 2.74 |  | 3.19 | 0.861 | 2.68 | 3.15 | 3.29 | 3.08 | 3.34 | 
16 | Cn1c(-c2ccccc2)cc(-c2ccc3c(c2)OCO3)c1-c1ccsc1 | > 100 | > 100 | > 100 | > 100 | > 100 | > 100 | > 100 | > 100 | > 100 |  | > 100 | > 100 | > 100 | > 100 | > 100 | > 100 | > 100
17 | CC(C)C1=Cc2ccc3c(c2C(=O)C1=O)CCCC3 | 34.1 | 6.57 | 13.1 | 2.15 | 16.9 | 15.4 | 19.3 | 25.6 | 42.1 | 12.1 | 30.9 | 6.74 | 15.8 | 16.6 | 26.8 | 34.4 | 
18 | COc1cccc([C@@H]2C/C(=N\NC(=O)C(=O)N[C@@H](C)c3ccccc3)c3ccccc3N2)c1 | > 100 | > 100 | > 100 | > 100 | 30.4 | 38.4 | > 100 | > 100 | > 100 |  | > 100 | > 100 | > 100 | > 100 | > 100 | > 100 | > 100
19 | O=C1NC(=O)C(CCC(=O)c2cccc3ccccc23)C(=O)N1 | > 100 | > 100 | > 100 | > 100 | > 100 | > 100 | > 100 | > 100 |  |  | > 100 | > 100 | > 100 | > 100 | > 100 | > 100 | 
20 | Nc1ccc(Oc2ccc(C34CC5CC(C3)CC(c3ccc(Oc6ccc(N)cc6C(F)(F)F)cc3)(C5)C4)cc2)c(C(F)(F)F)c1 | 31.5 | 40.3 | > 100 | > 100 |  | 62.3 | > 100 | 39.9 | 44.9 | 37.9 |  | > 100 | > 100 | 43.9 | 29.2 | 49 | > 100
21 | CC(C)(C)OC(=O)NC(CC(=O)OCc1ccccc1)C(=O)NC(C)(C)C(N)=O (stereo not drawn) (Boc-[ξD](OBn)-[Aib]-NH2) | > 100 | > 100 | > 100 | > 100 | > 100 | > 100 | > 100 | > 100 | > 100 | > 100 |  | > 100 | > 100 | > 100 | > 100 | > 100 | > 100
22 | Cc1ccc(S(=O)(=O)N(CCN)c2cc3c4c(c2)Oc2cccc5c2C4c2c(cccc2O3)O5)cc1 | 40.9 | 98.4 | > 100 |  | 50 | > 100 | 67.6 | 45.5 | 28.7 | 23.7 | > 100 | > 100 | 66.3 | 27.4 | 35.7 | > 100 | 57.9
23 | Nc1nc(Cl)c(N)c(NCC2(CO)CCC(OCc3ccccc3)C2)n1 (stereo not drawn) | > 100 |  | > 100 | > 100 | > 100 | > 100 | > 100 | > 100 | > 100 | > 100 | > 100 | > 100 | > 100 | > 100 | > 100 | > 100 | > 100
24 | N#Cc1c(-c2ccc([N+](=O)[O-])cc2)c2c([nH]c1=O)-c1ccccc1CCC2 | > 100 | > 100 | > 100 | > 100 | > 100 | > 100 | > 100 | > 100 | > 100 | > 100 | 71.1 | > 100 | > 100 | > 100 | > 100 | > 100 | 
25 | COCN1C(=O)[C@@H]2C[C@@H](O)CN2C(=O)c2ccccc21 | > 100 | > 100 | > 100 | > 100 |  | > 100 | > 100 | > 100 | > 100 | > 100 | > 100 | > 100 | > 100 | > 100 | > 100 | > 100 | > 100
26 | CC(C(=O)NCNC(=O)c1ccccc1)C(=O)Nc1ccccc1 (stereo not drawn) | > 100 | > 100 | > 100 | > 100 | > 100 | > 100 | > 100 | > 100 |  | > 100 |  | > 100 |  | > 100 | > 100 | > 100 | > 100
27 | CC1(C)CN(CC(=O)O)CC(Cc2ccc(OCC(=O)O)cc2)N(CC(=O)O)CC(C)(C)SS1 (stereo not drawn) | > 100 | > 100 | > 100 | > 100 | > 100 | > 100 | > 100 | > 100 | > 100 | > 100 | > 100 | > 100 | > 100 | > 100 | > 100 | > 100 | 
28 | O=C1c2ccccc2CC12Cc1cc3c(cc1C2)CCC3 | > 100 | 91.3 | > 100 | > 100 | > 100 |  | > 100 | 35.8 | > 100 | > 100 | > 100 | > 100 | > 100 | > 100 | > 100 | > 100 | > 100
